Reference: patent publication US10350271B2, “Lipidated peptides for lowering blood glucose” (USTAV ORGANICKE CHEMIE A BIOCHEMIE AKADEMIE VED CR, V.V.I., priority 2014, dated 2019)
Square brackets hold non-standard residues; d marks the D form. Peptide text beside a SMILES is read from it. * marks the point of attachment. Stearoyl = CCCCCCCCCCCCCCCCCC(=O)*; Palmitoyl = CCCCCCCCCCCCCCCC(=O)*; Myristoyl = CCCCCCCCCCCCCC(=O)*; Lauroyl = CCCCCCCCCCCC(=O)*; Nle = CCCC[C@H](N)C(=O)O; Octanoyl = CCCCCCCC(=O)*

Columns and labels:
rat PrRP receptor = biological target: T1, rat PrRP receptor (Rattus norvegicus, UniProt Q64121); experiment: Competitive binding in RC-4B/C rat pituitary cells (125I-rat PrRP31); settings: for % of PrRP31, RC-4B/C rat pituitary cells: affinity relative to PrRP31
T1 construct: host or cells: RC-4B/C rat pituitary cell line
T1 sequence (Q64121 1-370): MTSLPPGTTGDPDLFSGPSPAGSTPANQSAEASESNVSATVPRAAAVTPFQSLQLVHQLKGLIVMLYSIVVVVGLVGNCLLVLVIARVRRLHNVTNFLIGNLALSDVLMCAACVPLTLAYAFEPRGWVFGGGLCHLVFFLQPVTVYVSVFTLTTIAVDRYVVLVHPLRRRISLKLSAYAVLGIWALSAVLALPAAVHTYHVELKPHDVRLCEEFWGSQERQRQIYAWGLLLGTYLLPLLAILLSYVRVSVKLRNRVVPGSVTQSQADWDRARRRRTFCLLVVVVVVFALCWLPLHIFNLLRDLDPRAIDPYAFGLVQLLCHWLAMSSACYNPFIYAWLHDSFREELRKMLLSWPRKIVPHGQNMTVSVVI
Outline: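 Intact rat pituitary RC-4B/C cells incubated 60 min at room temperature with […] rat 125I-PrRP31 and unlabeled analog (10^−11 to 10^−4 mol·l^−1) in HEPES pH 7.4 buffer. Cell-bound radioactivity γ-counted after NaOH lysis; one-site competition fit.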

C57BL/6 mice = experiment: Food intake in fasted mice after SC injection; type: in vivo; settings: 5 mg/kg SC, 45 min after injection
Outline: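 Overnight-fasted animals (food removed 17 h before dosing, water available) in individual cages got saline, PrRP or lipidated PrRP analogs SC at 1-10 mg/kg.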

[1] = biological target: T2, human PrRP receptor GPR10 (Homo sapiens, UniProt P49683); experiment: Competitive binding in CHO cells transfected with human GPR10 (human 125I-PrRP31); settings: for % of PrRP31, GPR10 human receptor transfected in CHO cells: affinity relative to PrRP31
T2 construct: host or cells: CHO cells
T2 sequence (P49683 1-370): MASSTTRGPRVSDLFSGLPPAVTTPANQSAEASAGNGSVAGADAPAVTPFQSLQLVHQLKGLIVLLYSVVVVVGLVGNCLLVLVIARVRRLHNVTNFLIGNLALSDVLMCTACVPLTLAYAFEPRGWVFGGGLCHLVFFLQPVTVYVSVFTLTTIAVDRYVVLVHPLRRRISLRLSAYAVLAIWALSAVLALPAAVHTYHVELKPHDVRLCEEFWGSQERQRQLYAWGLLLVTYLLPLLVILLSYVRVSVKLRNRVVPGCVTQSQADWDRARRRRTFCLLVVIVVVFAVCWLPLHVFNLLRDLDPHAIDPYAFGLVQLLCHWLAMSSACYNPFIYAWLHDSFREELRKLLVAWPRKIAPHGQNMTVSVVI
Outline: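 GPR10-transfected CHO cells (40-80 thousand/well) incubated 60 min at room temperature with 5×10^-11 mol·l^-1 human 125I-PrRP31 and unlabeled analog at 10^-11 to 10^-4 mol·l^-1 in Tris binding buffer pH 7.4. Cells solubilized in 0.1 mol/l NaOH, γ-counted; one-site nonlinear regression fit.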

| SMILES | Ki (rat PrRP receptor; RC-4B/C cells, displacement of 125I-rat PrRP31, read-out: Ki, RC-4B/C rat pituitary cells ^25I-rat PrRP31) | Displacement of rat 125I-PrRP binding (rat PrRP receptor; RC-4B/C cells, rat PrRP receptor) | % of PrRP31, RC-4B/C rat pituitary cells (rat PrRP receptor) | % of PrRP31, GPR10 human receptor transfected in CHO cells [1] | Displacement of human 125I-PrRP binding ([1]; human GPR10 receptor) | Food intake in mice % of saline-treated group (C57BL/6 mice) |
| --- | --- | --- | --- | --- | --- | --- |
| CCCCCCCCCCCC(=O)N[C@@H](CO)C(=O)N[C@@H](CCCNC(=N)N)C(=O)N[C@@H](C)C(=O)N[C@@H](Cc1c[nH]cn1)C(=O)N[C@@H](CCC(N)=O)C(=O)N[C@@H](Cc1c[nH]cn1)C(=O)N[C@@H](CO)C(=O)N[C@@H](CCCC)C(=O)N[C@@H](CCC(=O)O)C(=O)N[C@H](C(=O)N[C@@H](CCCNC(=N)N)C(=O)N[C@H](C(=O)N1CCC[C@H]1C(=O)N[C@@H](CC(=O)O)C(=O)N[C@H](C(=O)N[C@@H](CC(N)=O)C(=O)N1CCC[C@H]1C(=O)N[C@@H](C)C(=O)N[C@@H](Cc1c[nH]c2ccccc12)C(=O)N[C@@H](Cc1ccc(O)cc1)C(=O)N[C@H](C(=O)NCC(=O)N[C@@H](CCCNC(=N)N)C(=O)NCC(=O)N[C@H](C(=O)N[C@@H](CCCNC(=N)N)C(=O)N1CCC[C@H]1C(=O)N[C@H](C(=O)NCC(=O)N[C@@H](CCCNC(=N)N)C(=O)N[C@@H](Cc1ccccc1)C(N)=O)C(C)C)[C@@H](C)CC)[C@@H](C)O)[C@@H](C)CC)[C@@H](C)O)[C@@H](C)O [Analog 6] (Lauroyl-SRAHQHS[Nle]ETRTPDINPAWYTGRGIRPVGRF-NH2) | – | – | 1264% | 327% | – | 22% |
| CCCCCCCC(=O)N[C@@H](CO)C(=O)N[C@@H](CCCNC(=N)N)C(=O)N[C@@H](C)C(=O)N[C@@H](Cc1c[nH]cn1)C(=O)N[C@@H](CCC(N)=O)C(=O)N[C@@H](Cc1c[nH]cn1)C(=O)N[C@@H](CO)C(=O)N[C@@H](CCCC)C(=O)N[C@@H](CCC(=O)O)C(=O)N[C@H](C(=O)N[C@@H](CCCNC(=N)N)C(=O)N[C@H](C(=O)N1CCC[C@H]1C(=O)N[C@@H](CC(=O)O)C(=O)N[C@H](C(=O)N[C@@H](CC(N)=O)C(=O)N1CCC[C@H]1C(=O)N[C@@H](C)C(=O)N[C@@H](Cc1c[nH]c2ccccc12)C(=O)N[C@@H](Cc1ccc(O)cc1)C(=O)N[C@H](C(=O)NCC(=O)N[C@@H](CCCNC(=N)N)C(=O)NCC(=O)N[C@H](C(=O)N[C@@H](CCCNC(=N)N)C(=O)N1CCC[C@H]1C(=O)N[C@H](C(=O)NCC(=O)N[C@@H](CCCNC(=N)N)C(=O)N[C@@H](Cc1ccccc1)C(N)=O)C(C)C)[C@@H](C)CC)[C@@H](C)O)[C@@H](C)CC)[C@@H](C)O)[C@@H](C)O [Analog 4] (Octanoyl-SRAHQHS[Nle]ETRTPDINPAWYTGRGIRPVGRF-NH2) | – | – | 503% | 254% | – | 94% |
| CCCCCCCCCCCCCC(=O)N[C@@H](CO)C(=O)N[C@@H](CCCNC(=N)N)C(=O)N[C@@H](C)C(=O)N[C@@H](Cc1c[nH]cn1)C(=O)N[C@@H](CCC(N)=O)C(=O)N[C@@H](Cc1c[nH]cn1)C(=O)N[C@@H](CO)C(=O)N[C@@H](CCCC)C(=O)N[C@@H](CCC(=O)O)C(=O)N[C@H](C(=O)N[C@@H](CCCNC(=N)N)C(=O)N[C@H](C(=O)N1CCC[C@H]1C(=O)N[C@@H](CC(=O)O)C(=O)N[C@H](C(=O)N[C@@H](CC(N)=O)C(=O)N1CCC[C@H]1C(=O)N[C@@H](C)C(=O)N[C@@H](Cc1c[nH]c2ccccc12)C(=O)N[C@@H](Cc1ccc(O)cc1)C(=O)N[C@H](C(=O)NCC(=O)N[C@@H](CCCNC(=N)N)C(=O)NCC(=O)N[C@H](C(=O)N[C@@H](CCCNC(=N)N)C(=O)N1CCC[C@H]1C(=O)N[C@H](C(=O)NCC(=O)N[C@@H](CCCNC(=N)N)C(=O)N[C@@H](Cc1ccccc1)C(N)=O)C(C)C)[C@@H](C)CC)[C@@H](C)O)[C@@H](C)CC)[C@@H](C)O)[C@@H](C)O [Analog 7] (Myristoyl-SRAHQHS[Nle]ETRTPDINPAWYTGRGIRPVGRF-NH2) | – | – | 714% | 548% | – | 3% |
| CCCCCCCCCCCCCCCCCC(=O)N[C@@H](CO)C(=O)N[C@@H](CCCNC(=N)N)C(=O)N[C@@H](C)C(=O)N[C@@H](Cc1c[nH]cn1)C(=O)N[C@@H](CCC(N)=O)C(=O)N[C@@H](Cc1c[nH]cn1)C(=O)N[C@@H](CO)C(=O)N[C@@H](CCCC)C(=O)N[C@@H](CCC(=O)O)C(=O)N[C@H](C(=O)N[C@@H](CCCNC(=N)N)C(=O)N[C@H](C(=O)N1CCC[C@H]1C(=O)N[C@@H](CC(=O)O)C(=O)N[C@H](C(=O)N[C@@H](CC(N)=O)C(=O)N1CCC[C@H]1C(=O)N[C@@H](C)C(=O)N[C@@H](Cc1c[nH]c2ccccc12)C(=O)N[C@@H](Cc1ccc(O)cc1)C(=O)N[C@H](C(=O)NCC(=O)N[C@@H](CCCNC(=N)N)C(=O)NCC(=O)N[C@H](C(=O)N[C@@H](CCCNC(=N)N)C(=O)N1CCC[C@H]1C(=O)N[C@H](C(=O)NCC(=O)N[C@@H](CCCNC(=N)N)C(=O)N[C@@H](Cc1ccccc1)C(N)=O)C(C)C)[C@@H](C)CC)[C@@H](C)O)[C@@H](C)CC)[C@@H](C)O)[C@@H](C)O [Analog 9] (Stearoyl-SRAHQHS[Nle]ETRTPDINPAWYTGRGIRPVGRF-NH2) | – | – | 514% | 7% | – | 3.5% |

The next lines start with results.

| Ki (rat PrRP receptor; RC-4B/C cells, displacement of 125I-rat PrRP31, read-out: Ki, RC-4B/C rat pituitary cells ^25I-rat PrRP31) | Displacement of rat 125I-PrRP binding (rat PrRP receptor; RC-4B/C cells, rat PrRP receptor) | % of PrRP31, RC-4B/C rat pituitary cells (rat PrRP receptor) | % of PrRP31, GPR10 human receptor transfected in CHO cells [1] | Displacement of human 125I-PrRP binding ([1]; human GPR10 receptor) | SMILES | Food intake in mice % of saline-treated group (C57BL/6 mice) |
| --- | --- | --- | --- | --- | --- | --- |
| 0.6 ± 0.22 nM | nmol·l^−1 range | 822% | 161% | nmol·l^−1 range | CCCCCCCCCCCC(=O)N[C@H](C(=O)N1CCC[C@H]1C(=O)N[C@@H](CC(=O)O)C(=O)N[C@H](C(=O)N[C@@H](CC(N)=O)C(=O)N1CCC[C@H]1C(=O)N[C@@H](C)C(=O)N[C@@H](Cc1c[nH]c2ccccc12)C(=O)N[C@@H](Cc1ccc(O)cc1)C(=O)N[C@@H](C)C(=O)N[C@@H](CO)C(=O)N[C@@H](CCCNC(=N)N)C(=O)NCC(=O)N[C@H](C(=O)N[C@@H](CCCNC(=N)N)C(=O)N1CCC[C@H]1C(=O)N[C@H](C(=O)NCC(=O)N[C@@H](CCCNC(=N)N)C(=O)N[C@@H](Cc1ccccc1)C(N)=O)C(C)C)[C@@H](C)CC)[C@@H](C)CC)[C@@H](C)O [Analog 41] (Lauroyl-TPDINPAWYASRGIRPVGRF-NH2) | 85% |
| – | – | 1120% | 248% | – | CCCCCCCCCCCCCCCC(=O)N[C@@H](CO)C(=O)N[C@@H](CCCNC(=N)N)C(=O)N[C@@H](C)C(=O)N[C@@H](Cc1c[nH]cn1)C(=O)N[C@@H](CCC(N)=O)C(=O)N[C@@H](Cc1c[nH]cn1)C(=O)N[C@@H](CO)C(=O)N[C@@H](CCCC)C(=O)N[C@@H](CCC(=O)O)C(=O)N[C@H](C(=O)N[C@@H](CCCNC(=N)N)C(=O)N[C@H](C(=O)N1CCC[C@H]1C(=O)N[C@@H](CC(=O)O)C(=O)N[C@H](C(=O)N[C@@H](CC(N)=O)C(=O)N1CCC[C@H]1C(=O)N[C@@H](C)C(=O)N[C@@H](Cc1c[nH]c2ccccc12)C(=O)N[C@@H](Cc1ccc(O)cc1)C(=O)N[C@H](C(=O)NCC(=O)N[C@@H](CCCNC(=N)N)C(=O)NCC(=O)N[C@H](C(=O)N[C@@H](CCCNC(=N)N)C(=O)N1CCC[C@H]1C(=O)N[C@H](C(=O)NCC(=O)N[C@@H](CCCNC(=N)N)C(=O)N[C@@H](Cc1ccc(O)cc1)C(N)=O)C(C)C)[C@@H](C)CC)[C@@H](C)O)[C@@H](C)CC)[C@@H](C)O)[C@@H](C)O [Analog 24] (Palmitoyl-SRAHQHS[Nle]ETRTPDINPAWYTGRGIRPVGRY-NH2) | 22% |
